Reference: PubChem BioAssay (NCI)
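Values below derive from 48-hour exposures of cells grown in 96-well plates, with endpoints linearly interpolated between the two concentrations bracketing the appropriate inhibition level. Definition used: TGI = concentration required for complete inhibition of growth.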

Assays:
Assay in all cases: NCI anticancer screen, dose series, 48 h
SF-539 CNS = system: SF-539 CNS
RXF 393 renal = system: RXF 393 renal
SW-620 colon = system: SW-620 colon
OVCAR-3 ovarian = system: OVCAR-3 ovarian
HOP-92 NSCLC = system: HOP-92 NSCLC
CAKI-1 renal = system: CAKI-1 renal
MDA-N = system: MDA-N
OVCAR-4 ovarian = system: OVCAR-4 ovarian
IGROV1 ovarian = system: IGROV1 ovarian
NCI-H226 lung = system: NCI-H226 lung
KM12 colon = system: KM12 colon
HCC-2998 colon = system: HCC-2998 colon
ACHN renal = system: ACHN renal
SK-OV-3 ovarian = system: SK-OV-3 ovarian

SMILES	TGI (SF-539 CNS) [µM]	TGI (RXF 393 renal) [µM]	TGI (SW-620 colon) [µM]	TGI (OVCAR-3 ovarian) [µM]	TGI (HOP-92 NSCLC) [µM]	TGI (CAKI-1 renal) [µM]	TGI (MDA-N) [µM]	TGI (OVCAR-4 ovarian) [µM]	TGI (IGROV1 ovarian) [µM]	TGI (NCI-H226 lung) [µM]	TGI (KM12 colon) [µM]	TGI (HCC-2998 colon) [µM]	TGI (ACHN renal) [µM]	TGI (SK-OV-3 ovarian) [µM]
Brc1ccc(N=C/C=C(\Nc2ccc(Br)cc2)C23CC4CC(CC(C4)C2)C3)cc1	51.8	29	92.1	28.9	31.5	25.4	34.9	31.3	28	> 100	33.9	35.8	23.2	> 100
CCOC(=O)C(CC(C)C)NC(=O)C(N)Cc1ccc(N(CCCl)CCCl)cc1 (stereo unspecified)	9.59	5.12	35.7	4.72	11.2	15.3	26.1	3.1	31.6	29.5	20.1	20	1.81	16.6
COc1ccccc1NC(=S)NNC(=O)c1cc(-c2ccccc2)nc2ccccc12	28.1	28.8	84.9	18.2	36.5	39.5	7.78	85.4	68.5	51.9	46.5	28.6	65.8	42.1
CCC1CN2CCc3cc(OC)c(OC)cc3C2CC1CC1c2cc(OC)c(OC)cc2CCN1C(=O)C(Cc1c[nH]c2ccccc12)NC(=O)OC(C)(C)C (stereo unspecified)	4.43	7.3	9.03	6.74	7.1	16.7	3.49	3.63	4.25	27.6	11	5.24	10.4	9.48
COc1ccc(NS(=O)(=O)c2ccc3ncn(NS(=O)(=O)c4ccc(I)cc4)c(=O)c3c2)cc1	> 100	> 100	> 100	> 100	> 100	> 100	> 100	> 100	> 100	> 100	> 100	> 100	> 100	> 100
CCOc1ccc(-n2c(=O)c3nn4c(=O)n(-c5ccc(OCC)cc5)c(=O)c4nn3c2=O)cc1	> 100	> 100	> 100	> 100	> 100	> 100	> 100	> 100	> 100	> 100	> 100	> 100	> 100	> 100
CN(NC(=O)c1ccc(Cl)cc1)C1=NCCCCN1	> 100	> 100	> 100	> 100	> 100	> 100	> 100	> 100	> 100	> 100	> 100	> 100	> 100	> 100
CCN(CC)CCOc1ccc(N2Cc3cc(OC)c(OC)cc3C2=O)cc1	> 100	> 100	> 100	> 100	> 100	> 100	> 100	> 100	> 100	> 100	> 100	> 100	> 100	> 100
c1ccc(C2C3=C(c4ccccc4CC3)N3c4cc5nc6ccccc6nc5cc4NC34CCCCC24)cc1 (stereo unspecified)	> 10	> 10	> 10	> 10	> 10	> 10	> 10	> 10	> 10	> 10	> 10	> 10	> 10	> 10
